# Experimental data: patent US7919468B2, “Compounds useful as modulators of the proteasome activity” (Centre National de la Recherche Scientifique (C.N.R.S.), priority 2005, dated 2011)
# pIC50: −log10 of the molar value. Peptide text beside a SMILES is read from it. * marks the point of attachment. Boc = CC(C)(C)OC(=O)*; NHBn = c1ccc(CN*)cc1; Bn = c1ccc(C*)cc1
# Tests used:
# Format in all cases: biochemical
# [1] = target: T1, rabbit 20S proteasome, chymotrypsin-like (CT-L) activity (Oryctolagus cuniculus, UniProt G1T4Q9); assay: Rabbit 20S proteasome fluorescent assay, chymotrypsin-like activity (Suc-LLVY-amc); details: pH 7.5, 30° C.; for inhibition at 100 µM: 100 μM compound
# T1 construct: other: 100 μM compound, pH 7.5, 30° C; other: pH 7.5, 30° C; CT-L Ki
# T1 sequence (G1T4Q9 1-263): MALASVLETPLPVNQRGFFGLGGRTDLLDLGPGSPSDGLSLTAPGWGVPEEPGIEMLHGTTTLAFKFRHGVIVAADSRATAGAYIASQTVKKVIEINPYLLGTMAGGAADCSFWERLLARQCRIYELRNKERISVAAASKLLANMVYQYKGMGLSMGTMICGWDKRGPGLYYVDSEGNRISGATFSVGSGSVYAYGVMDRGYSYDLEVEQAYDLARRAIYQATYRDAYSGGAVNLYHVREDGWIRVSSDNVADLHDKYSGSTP
# Method: (§1) 20S proteasome from rabbit reticulocyte was from commercial source (Alexis Biochemicals)
# (§2) Semi-automatic fluorescent assays using Suc-LLVY-amc (SEQ ID NO: 2) for chymotrypsin-like activity, Z-LLE-SNA for post-acid activity and Boc-LLR-amc for trypsin-like activity of proteasome were performed at pH 7.5 and 30° C. using BMG Fluostar microplate reader (Suc=succinyl; amc=7-amino-4-methylcoumarin; Z=benzyloxycarbonyl; NA=2-naphtylamine; Boc=tert-butoxycarbonyl). The buffers were: 20 mM Tris, 1 mM DTT, 10% glycerol, 3% (v/v) DMSO (ChT-L and PA activities); 20 mM Tris, 1 mM DTT, 10% glycerol, 3% (v/v) DMSO. Studied compounds were dissolved in DMSO prior dissolution in the buffer. Proteasome was incubated for 15 min at 30° C. in the presence of the studied compound (0.1-100 μM). A control assay in the absence of tested compounds contained DMSO at the same concentration (3%, v/v). The fluorogenic proteasome substrate was then added and the hydrolysis of the appropriate fluorescent substrate was monitored for 1 h (λexc=360, λem=465 nm for amc substrates and λexc=340, λem=405 nm for the βNA substrate). Initial rates determined in control experiments were considered to be 100% of the peptidasic activity; initial rates that were above 100% in the presence of a test compound were considered to be activations, while initial rates below 100% were considered to be inhibitions. For weak inhibitors, the percentage of inhibition at a reference concentration (100 μM) is reported. The results, expressed in % inhibition (or activation factor), were obtained by calculating the average of at least two independent experiments, the variability was less than 10%. The inhibitory activity of more efficient compounds are expressed as IC50 calculated by fitting the experimental data to the equation 1: % Inhibition=100 [I]0/(IC50+[I]0)=100 (v0−vi/v0), or equation 2: % Inhibition=100 [I]0^nH/(IC50^nH+[I]0^nH), nH is the Hill number. v0 and vi are the initial rates in the absence and in the presence of inhibitor. A Dixon plot has been used to determine the inhibition constant Ki for competitive inhibition by compound A215. The reversible character of inhibition or activation was determined by measuring the activity of treated enzyme after the inhibitor molecule has been withdrawn from the reaction medium.
# (§3) Inhibition of Rabbit 20 S Proteasome (pH=7.5, 30° C.)
# (§4) Activation of Rabbit 20 S Proteasome (pH=7.5, 30° C., [Compound]=100 μM)
# [2] = target: T2, rabbit 20S proteasome, post-acid (PA) activity (Oryctolagus cuniculus, UniProt A0A5F9DQW2); assay: Rabbit 20S proteasome fluorescent assay, post-acid activity (Z-LLE-βNA); details: pH 7.5, 30° C.; for PA % inhibition (at 100 μM): 100 μM compound
# T2 construct: other: 100 μM compound, pH 7.5, 30° C; other: pH 7.5, 30° C
# Method: as §1, §2, §3, §4
# [3] = test system: rabbit 20S proteasome, trypsin-like (T-L) activity; assay: Rabbit 20S proteasome fluorescent assay, trypsin-like activity (Boc-LLR-amc); details: [Compound]=100 μM, pH 7.5, 30° C.
# Method: as §1, §2, §3, §4
# T2 sequence (A0A5F9DQW2 1-212): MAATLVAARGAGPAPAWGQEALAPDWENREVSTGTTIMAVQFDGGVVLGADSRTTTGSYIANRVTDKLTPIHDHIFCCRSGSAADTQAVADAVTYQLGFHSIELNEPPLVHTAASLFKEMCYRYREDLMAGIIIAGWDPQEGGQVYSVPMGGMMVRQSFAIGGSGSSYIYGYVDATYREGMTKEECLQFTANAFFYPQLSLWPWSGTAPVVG
Compound,inhibition at 100 µM [1] [%],PA % inhibition (at 100 μM) [2] [%],T-L Activation factor [3],pIC50 [2],pIC50 [1]
"CC(C)(C)OC(=O)N[C@@H](Cc1ccc(OCc2ccccc2)cc1)C(=O)N[C@@H](CC(N)=O)C(=O)N[C@@H](Cc1c[nH]c2ccccc12)C(=O)Nc1ccc(O)cc1 [SP318C, N-Boc-Tyr(Bn)-Asn-Trp-NH(4-OH)Ph]",15,66,1.2,,
"CCOC(=O)[C@H](Cc1c[nH]c2c(Br)cccc12)NC(=O)[C@H](CC(C)C)NC(=O)[C@H](Cc1ccc(OC)c(I)c1)NC(=O)OC(C)(C)C [A340, N-Boc-3-iodo-Tyr(Me)-Leu-7-bromo-Trp-OEt]",,17,,,
"CC(C)(C)OC(=O)N[C@@H](Cc1ccc(OCc2ccccc2)cc1)C(=O)NCC(=O)N[C@@H](Cc1c[nH]c2ccccc12)C(=O)O [NR35, N-Boc-Tyr(Bn)-Gly-Trp-OH] (Boc-Tyr(Bn)-Gly-Trp-OH)",,,1.8,,
"CC(C)(C)OC(=O)NCCC[C@H](NC(=O)[C@H](Cc1ccc(OCc2ccccc2)cc1)NC(=O)OC(C)(C)C)C(=O)N[C@@H](CC1C(=O)Nc2ccccc21)C(=O)Nc1ccccc1 (some centres unmarked) [CV12, Boc-Tyr(Bn)-Lys(Boc)-Trp[O]—NHPh]",,,1.5,4.98,
"CC(C)(C)OC(=O)N[C@@H](Cc1ccc(OCc2ccccc2)cc1)C(=O)N[C@@H](CC(N)=O)C(=O)N[C@@H](Cc1c[nH]c2ccccc12)C(=O)NCc1ccccc1 [A416, N-Boc-Tyr(Bn)-Asn-Trp-NHCH2Ph] (Boc-Tyr(Bn)-Asn-Trp-NHBn)",28,35,2.2,,
"C[C@H](NC(=O)[C@H](Cc1ccc(OCc2ccccc2)cc1)NC(=O)OC(C)(C)C)C(=O)N[C@@H](Cc1c[nH]c2ccccc12)C(=O)Nc1ccc(O)cc1 [SP313P, N-Boc-Tyr(Bn)-Ala-Trp-NH(4-OH)Ph]",26,,,5.40,
"COC(=O)[C@H](Cc1c[nH]c2c(Br)cccc12)NC(=O)[C@H](C)NC(=O)[C@H](Cc1ccc(OCc2ccccc2)c(I)c1)NC(=O)OC(C)(C)C [A248, N-Boc-3-iodo-Tyr(Bn)-Ala-7-bromo-Trp-OMe]",,32,,,
"CC(C)(C)OC(=O)N[C@@H](Cc1ccc(OCc2ccccc2)cc1)C(=O)N[C@@H](CCCN(C(=N)NC(=O)OCc1ccccc1)C(=O)OCc1ccccc1)C(=O)N[C@@H](CC1C(=O)Nc2ccccc21)C(=O)NCc1ccccc1 (some centres unmarked) [NR16, Boc-Tyr(Bn)-Arg(Z)-2-Trp[O]—NHCH2Ph]",12,,8.2,,
"COC(=O)[C@H](Cc1c[nH]c2c(Br)cccc12)NC(=O)[C@H](CC(N)=O)NC(=O)[C@H](Cc1ccc(OCc2ccccc2)c(I)c1)NC(=O)OC(C)(C)C [SP274, N-Boc-3-iodo-Tyr(Bn)-Asn-7-bromo-Trp-OMe]",62,45,,,
"COC(=O)[C@H](Cc1c[nH]c2c(Br)cccc12)NC(=O)CCNC(=O)C(Cc1ccc(OC)c(I)c1)NC(=O)OC(C)(C)C (some centres unmarked) [A493, N-Boc-3-iodo-Tyr(Me)-βAla-7-bromo-Trp-OMe]",29,40,8.2,,
"CC(C)(C)OC(=O)N[C@@H](Cc1ccc(OCc2ccccc2)cc1)C(=O)NCC(=O)N[C@@H](CC1C(=O)Nc2ccccc21)C(=O)NCc1ccccc1 (some centres unmarked) [NR15, Boc-Tyr(Bn)-Gly-Trp[O]—NHCH2Ph]",,87,12.3,,5.66
"CC(C)C[C@H](NC(=O)[C@H](Cc1ccc(OCc2ccccc2)cc1)NC(=O)OC(C)(C)C)C(=O)N[C@@H](CC1C(=O)Nc2ccccc21)C(=O)Nc1ccccc1 (some centres unmarked) [JV602, Boc-Tyr(Bn)-Leu-Trp[O]—NHPh]",22,26,1.3,,
"COC(=O)[C@H](Cc1c[nH]c2ccccc12)NC(=O)[C@H](C)NC(=O)[C@H](Cc1ccc(OCc2ccccc2)cc1)NC(=O)OC(C)(C)C [NR36, N-Boc-Tyr(Bn)-Ala-Trp-OCH3] (Boc-Tyr(Bn)-Ala-Trp-OMe)",34,39,9.8,,
CCOC(=O)[C@H](Cc1c[nH]c2c(-c3cc(C[C@H](NC(=O)OC(C)(C)C)C(=O)N[C@@H](CC(C)C)C(=O)OC)ccc3OCc3ccccc3)cccc12)NC(=O)OCc1ccccc1 [SP221],,,1.4,,
"CNC(=O)[C@H](Cc1c[nH]c2c(Br)cccc12)NC(=O)[C@H](C)NC(=O)[C@H](Cc1ccc(OCc2ccccc2)c(I)c1)NC(=O)OC(C)(C)C [A254, N-Boc-3-iodo-Tyr(Bn)-Ala-7-bromo-Trp-NHMe]",38,60,,,
"CC(C)C[C@H](NC(=O)[C@H](Cc1ccc(OCc2ccccc2)cc1)NC(=O)OC(C)(C)C)C(=O)N[C@@H](Cc1c[nH]c2ccccc12)C(=O)NCCCCNC(=O)OC(C)(C)C [SP296P, N-Boc-Tyr(Bn)-Leu-Trp-NH(CH2)4NHBoc]",22,59,2.3,,
"COC(=O)[C@H](Cc1c[nH]c2c(Br)cccc12)NC(=O)[C@H](CC(C)C)NC(=O)[C@H](Cc1ccc(OCc2ccccc2)c(I)c1)NC(=O)OC(C)(C)C [A268, N-Boc-3-iodo-Tyr(Bn)-Leu-7-bromo-Trp-OMe]",,,2,,
"C[C@H](NC(=O)[C@H](Cc1ccc(OCc2ccccc2)cc1)NC(=O)OC(C)(C)C)C(=O)N[C@@H](CC1C(=O)Nc2ccccc21)C(=O)Nc1ccccc1 (some centres unmarked) [CV13, Boc-Tyr(Bn)-Ala-Trp[O]—NHPh]",32,,,5.41,
"CC(C)C[C@H](NC(=O)[C@H](Cc1ccc(OCc2ccccc2)cc1)NC(=O)OC(C)(C)C)C(=O)N[C@@H](Cc1c[nH]c2ccccc12)C(=O)Nc1ccc(O)cc1 [A418P, N-Boc-Tyr(Bn)-Leu-Trp-NH(4-OH)Ph]",,32,1.6,,
"COC(=O)[C@H](Cc1c[nH]c2ccccc12)NC(=O)[C@H](C)NC(=O)[C@H](Cc1ccc(O)cc1)NC(=O)OC(C)(C)C [NR40, N-Boc-Tyr-Ala-Trp-OCH3] (Boc-Tyr-Ala-Trp-OMe)",,,6,4.46,4.40
"COC(=O)[C@H](Cc1c[nH]c2c(Br)cccc12)NC(=O)[C@H](C)NC(=O)[C@H](Cc1ccc(OC)c(I)c1)NC(=O)OC(C)(C)C [A385, N-Boc-3-iodo-Tyr(Me)-Ala-7-bromo-Trp-OMe]",28,38,,,
"COC(=O)[C@H](Cc1c[nH]c2c(Br)cccc12)NC(=O)[C@H](CC(C)C)NC(=O)[C@H](Cc1ccc(OC)c(I)c1)NC(=O)OC(C)(C)C [A363, N-Boc-3-iodo-Tyr(Me)-Leu-7-bromo-Trp-OMe]",,20,1.9,,
"CC(C)(C)OC(=O)N[C@@H](Cc1ccc(OCc2ccccc2)cc1)C(=O)N[C@@H](CCCN(C(=N)NC(=O)OCc1ccccc1)C(=O)OCc1ccccc1)C(=O)N[C@@H](CC1C(=O)Nc2ccccc21)C(=O)Nc1ccccc1 (some centres unmarked) [CV11, Boc-Tyr(Bn)-Arg(Z)-2-Trp[O]—NHPh]",,,1.7,,
"COC(=O)[C@H](CC1C(=O)Nc2ccccc21)NC(=O)CNC(=O)[C@H](Cc1ccc(OCc2ccccc2)cc1)NC(=O)OC(C)(C)C (some centres unmarked) [NR38, Boc-Tyr(Bn)-Gly-Trp[O]—OCH3]",,81,9.8,,4.87
"C[C@H](NC(=O)[C@H](Cc1ccc(OCc2ccccc2)cc1)NC(=O)OC(C)(C)C)C(=O)N[C@@H](Cc1c[nH]c2ccccc12)C(=O)NCc1ccccc1 [SP304R, N-Boc-Tyr(Bn)-Ala-Trp-NHCCH2Ph] (Boc-Tyr(Bn)-Ala-Trp-NHBn)",,45,1.7,,
